Results published in patent US8729051B2, “Tri- and tetra-oligo-saccharides suitable as agglutination agents for enteric pathogens” (Nutrition Sciences N.V./S.A., priority 2006, dated 2014).

How the values were obtained:
E. coli K88 cells = test: Pathogen agglutination, microscopic analysis; format: cell-based; settings: 0.025%, pH 7.0, 10 minutes; versus xylose, penta- and deca-xylo-oligo-saccharides
Experimental: Tri and/or tetra-manno-oligo-saccharides were incubated in liquid at a dose of 0.025% at pH 7.0 with E. coli K88 and Lactobacillus amylovorus cells for 10 minutes. After 10 minutes, agglutination was visualised by means of microscopic analysis.

[1] = Chicken performance (weight, feed conversion); format: in vivo, chickens; settings: feed with 3 ppm flavomycin or 0.025% oligo-saccharides
Text: 3×40 one day old chickens were provided with following feeds: control feed, control feed supplemented with 3 ppm flavomycin and control feed supplemented with 0.025% tri- and/or tetra-manno-oligo-saccharides. The control feed was a mash feed, composed of raw materials suitable for animal nutrition. Water and feed were supplied ad libitum. The chickens were contaminated at day 2 with caecum contents of 3 week old chickens (most critical period for gastrointestinal problems). At regular time intervals, chickens were dissected and the enteric pathogen contents in the small intestine were determined by plate counting on MacConkey agar.
The same experimental conditions were applied as described in experiment 1. In this example, daily growth and feed conversion were monitored after 13 days.

Row | Compound | agglutination, comparison of degree of polymerisation of xylo-oligo-saccharides (E. coli K88 cells) | Feed conversion/chicken ([1]; after 13 days) | Weight/chicken at day 1 ([1]; day 1) | Weight/chicken at day 13 ([1]; day 13)
1 | OC1OC[C@@H](O[C@@H]2OC[C@@H](O[C@@H]3OC[C@@H](O)[C@H](O)[C@H]3O)[C@H](O)[C@H]2O)[C@H](O)[C@H]1O (some centres unmarked) [tri-xylo-oligo-saccharides] | best agglutination | – | – | –
2 | flavomycin | – | 1.51 | 43.54 | 208.8
3 | tetra-xylo-oligo-saccharides | best agglutination | – | – | –
